Patent publication US20160000721A1, “GASTRO-RETENTIVE FORMULATIONS” (priority 2012, published 2016)
Converted amounts (≈) assume the structure as drawn.

Key:
[1] = Aqueous solubility of raltegravir at given pH; format: physicochemical
Text: In one embodiment of the invention, the drug is raltegravir or pharmaceutically acceptable salt thereof. Raltegravir (N-(4-fluorobenzyl)-5-hydroxy-1-methyl-2-(1-methyl-1-{[(5-methyl-1,3,4-oxadiazol-2-yl)carbonyl]amino}ethyl)-6-oxo-1,6-dihydropyrimidine-4-carboxamide) belongs to a novel class of anti-retroviral drugs indicated for the treatment of human immunodeficiency virus (HIV-1) known as integrase strand inhibitors. See, e.g., U.S. Pat. No. 7,169,780. More particularly preferred is the anhydrous crystalline potassium salt of raltegravir, which is characterized by an X-ray powder diffraction pattern obtained using copper Kα radiation which comprises 2Θ values in degrees of 5.9, 20.0 and 20.6. See U.S. Pat. No. 7,754,731, herein incorporated by reference in its entirety. This form of raltegravir is the active pharmaceutical ingredient (API) in […]® tablets.

[2] = in vivo; cited from earlier work

## Cc1nnc(C(=O)NC(C)(C)c2nc(C(=O)NCc3ccc(F)cc3)c(O)c(=O)n2C)o1 [Raltegravir, N-(4-fluorobenzyl)-5-hydroxy-1-methyl-2-(1-methyl-1-{[(5-methyl-1,3,4-oxadiazol-2-yl)carbonyl]amino}ethyl)-6-oxo-1,6-dihydropyrimidine-4-carboxamide]
[1]; aqueous buffer, pH range of 1-6
  solubility: 20 µg/mL (≈ 45 µM)
[1]; pH 6.8, aqueous buffer
  solubility: 480 µg/mL (≈ 1080 µM)
[2]
  terminal half-life: approximately 9 hours
  α-phase half-life: approximately 1 hour
